PubChem BioAssay (NCI)
Several values for one entry are separate records, joined by “and”; a condition that tells them apart may be missing. Equal entries are not always repeated.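 Exposure lasted 48 hours, with cells grown in 96-well plates and compounds tested at five concentrations. GI50: concentration for 50% inhibition of growth. Definition used: TGI = concentration required for complete inhibition of growth.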

Tests used:
Assay in all cases: NCI tumour cell line growth inhibition, 48 h
[1] = system: MALME-3M melanoma
[2] = system: SN12C renal
[3] = system: SF-295 CNS
[4] = system: SK-MEL-5 melanoma
[5] = system: OVCAR-5 ovarian
[6] = system: U251 CNS
[7] = system: OVCAR-3 ovarian
[8] = system: OVCAR-4 ovarian
[9] = system: IGROV1 ovarian
[10] = system: MCF7 breast

Row | Compound | TGI [1] | GI50 [2] | TGI [2] | GI50 [3] | TGI [3] | GI50 [4] | TGI [4] | GI50 [5] | TGI [5] | GI50 [6] | TGI [6] | GI50 [7] | TGI [7] | GI50 [8] | TGI [8] | GI50 [9] | TGI [9] | GI50 [10] | TGI [10] | GI50 [1]
1 | Cc1cc(C(=O)NC(CCC(=O)O)C(=O)O)sc1CCC1CNc2nc(N)[nH]c(=O)c2C1 (centres undefined) | > 100 µM | 0.0315 µM and 0.0482 µM | > 100 µM | 0.0537 µM and 0.0973 µM | > 100 µM | 0.056 µM and 0.279 µM | > 100 µM | 0.0383 µM and 0.0723 µM | > 100 µM | 0.0368 µM and 0.0439 µM | > 100 µM | 0.0523 µM and 0.487 µM | > 100 µM | 0.121 µM and 0.167 µM | > 100 µM | 0.0464 µM and 0.192 µM | > 100 µM | < 0.0114 µM and 0.0346 µM | > 100 µM | 
2 | COc1c(-c2ccc(O)c(O)c2)oc2c(O)c(O)cc(O)c2c1=O | > 100 µM |  | 31 µM |  | > 100 µM |  | > 100 µM |  | > 100 µM |  | > 100 µM |  | > 100 µM |  | > 100 µM |  | 70.7 µM |  | 76.1 µM | 
3 | O=S1(=O)CS(=O)(=O)OCCO1 | 214 µM |  | 335 µM | 43.1 µM | 121 µM | > 56.6 µM | 87.7 µM |  | 269 µM | 18.2 µM | 96.3 µM |  | 87.5 µM |  | 130 µM | > 69.7 µM | 144 µM | 39.1 µM | 348 µM | 
4 | CCCCNC(=O)Oc1ccc(/C(=C(/C)Cc2ccc(OC)cc2)c2ccc(OCCN3CCCC3)cc2)cc1 | 3.28 µM | 1.77 µM | 3.27 µM | 1.65 µM | 3.14 µM | 1.66 µM | 3.17 µM | 3.6 µM | 12.7 µM | 1.82 µM | 3.31 µM | 1.79 µM | 3.47 µM | 1.83 µM | 4.26 µM | 2.11 µM | 4.52 µM | 0.655 µM | 2.51 µM | 1.7 µM
5 | Cc1ccn2c(CCc3nnc4cc(C)ccn34)nnc2c1 | > 100 µM |  | > 100 µM |  | > 100 µM |  | > 100 µM |  | > 100 µM |  | > 100 µM |  | > 100 µM |  | > 100 µM |  | > 100 µM |  | > 100 µM | 
6 | CCCCCCCCCCCCCCCC(=O)OCC1OC(OC)C2NP(=O)(N(CCCl)CCCl)OC1C2O (centres undefined) | 34.1 µM |  | 24.8 µM |  | > 41.8 µM |  | 38 µM |  | 59.2 µM |  | > 19.5 µM |  | 10.7 µM |  | 38 µM |  | > 54.9 µM |  | 20.5 µM | 
7 | CN1CCN(Cc2ccc(NC(=O)c3cncc(C#Cc4cncc5nccnc45)c3)cc2C(F)(F)F)CC1 | 1.3 µM | 1.97 µM | 13.9 µM | 7.05 µM | 14.4 µM | 2.61 µM | 8.63 µM | 2.15 µM | 32.8 µM | 5.67 µM | 13 µM | 4.95 µM | 15.1 µM | 1.04 µM | 12 µM | 1.52 µM | 7.07 µM | 2.35 µM | 10.1 µM | 0.231 µM
8 | C[C@]1(Cn2ccnn2)C(C(=O)O)N2C(=O)CC2S1(=O)=O (some centres undefined) | > 100 µM | > 100 µM | > 100 µM | > 100 µM | > 100 µM | > 100 µM | > 100 µM | > 100 µM | > 100 µM | > 100 µM | > 100 µM | > 100 µM | > 100 µM | > 100 µM | > 100 µM | > 100 µM | > 100 µM | > 100 µM | > 100 µM | > 100 µM
9 | COC(=O)C(CBr)CBr | 4.93 µM |  | 9.28 µM |  | 31.1 µM |  | 25.1 µM |  | 31.2 µM |  | 10.3 µM |  | 7.09 µM |  | 8.58 µM |  | 25.5 µM |  | 20.6 µM | 
10 | CC1(C)C(=O)/C=C\C(=O)C(C)(C)C(=O)/C=C\C(=O)C(C)(C)C(=O)/C=C\C(=O)C(C)(C)C(=O)/C=C\C1=O | 33.1 µM |  | 54.8 µM |  | 54.5 µM |  | 56.2 µM |  | 69.7 µM |  | 64.3 µM |  | 48.7 µM |  | 53.1 µM |  | 56.5 µM |  | > 100 µM | 
11 | COC(=O)/C=C1/SC(N2N=C(c3cccs3)CC2c2ccc(F)cc2)=NC1=O (centres undefined) | 8.51 µM | 3.29 µM | 11 µM | 3.24 µM | 13.5 µM | 1.78 µM | 3.36 µM | 2.46 µM | 5.21 µM | 1.89 µM | 3.69 µM | 2.19 µM | 5.27 µM | 2.64 µM | 7.49 µM | 2.4 µM | 7.06 µM | 2.34 µM | 8.06 µM | 2.44 µM
12 | c1cncc(C2Nc3cccc4cccc(c34)N2)c1 | 57.7 µM | 53.4 µM | > 100 µM | 49.7 µM | > 100 µM | 66.3 µM | > 100 µM | 88.7 µM | > 100 µM | 21.9 µM | 54 µM | 17.8 µM | 37.1 µM | 13.8 µM | 27.3 µM | 11.8 µM | 25.6 µM | 18.7 µM | 60.6 µM | 25.6 µM
13 | NC(N)=Nc1nc2ccc([N+](=O)[O-])cc2[nH]1 | > 100 µM |  | > 100 µM |  | > 100 µM |  | > 100 µM |  | > 100 µM |  | > 100 µM |  | > 100 µM |  | > 100 µM |  | > 100 µM |  | > 100 µM | 
14 | N#Cc1c(N)nc(N)nc1N[C@H](c1nc2c(F)ccc(Cl)c2c(=O)n1-c1cccnc1)C1CC1 | > 100 µM | 10.8 µM | > 100 µM | 1.18 µM | 13.2 µM | 8.33 µM | 21.9 µM | 2.72 µM | 45.7 µM | 14.7 µM | 69.2 µM | 1.47 µM | 16.3 µM | 19.4 µM | 87.1 µM | 1.22 µM | 5.31 µM | 2.04 µM | > 100 µM | 10.9 µM
15 | CCCCC(=O)N/N=C/c1c(O)ccc2ccccc12 | 20.3 µM | 5.44 µM | > 100 µM | 1.83 µM | 16.5 µM | 1.84 µM | 11.4 µM | 6.97 µM | > 100 µM | 1.6 µM | > 100 µM | 0.423 µM | 9.37 µM | 1.47 µM | > 33.2 µM | 0.65 µM | 7.12 µM | 2.09 µM | 15.8 µM | 3.06 µM
